Measurements from patent US9670227B2, “Thienopyrimidine derivatives, a process for their preparation and pharmaceutical compositions containing them” (LES LABORATOIRES SERVIER, priority 2013, dated 2017).

Each compound was assayed against Mcl-1 protein (UniProtKB primary accession number: Q07820) (Homo sapiens, UniProt Q07820) (assay: Inhibition of Mcl-1 by fluorescence polarisation, Method 1). Settings: fluorescence polarisation test; Method 1, or Method 2 where the value is underlined (underlining not visible); read-out: IC50 (M) Mcl-1 FP.
Mcl-1 protein, sequence (Q07820 whole entry): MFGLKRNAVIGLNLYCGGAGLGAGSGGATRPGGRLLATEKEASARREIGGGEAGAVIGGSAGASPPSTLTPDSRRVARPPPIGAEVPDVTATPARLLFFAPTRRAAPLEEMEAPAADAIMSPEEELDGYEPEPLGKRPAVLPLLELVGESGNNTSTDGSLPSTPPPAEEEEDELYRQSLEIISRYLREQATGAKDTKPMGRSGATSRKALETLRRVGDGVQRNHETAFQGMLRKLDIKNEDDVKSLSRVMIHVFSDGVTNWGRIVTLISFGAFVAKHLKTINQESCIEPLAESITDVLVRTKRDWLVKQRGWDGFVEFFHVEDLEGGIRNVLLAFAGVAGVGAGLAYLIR
Format: binding
Outline: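 FP competition, 11-point compound titration in 5% final DMSO; protein and labelled probe at 5 nM and 1 nM final in HEPES/NaCl/Tween 20 buffer, pH 7.4.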

SMILES | IC50 [M]
Cc1c(-c2c(-c3ccc(F)cc3)sc3ncnc(OC(Cc4ccccc4OCc4ccnc(-c5ccccc5F)n4)C(=O)OCC(=O)N(C)C)c23)ccc(OCCN2CCN(C)CC2)c1Cl [Example 816, 2-(dimethylamino)-2-oxoethyl (2R)-2-{[(5Sa)-5-{3-chloro-2-methyl-4-[2-(4-methylpiperazin-1-yl)ethoxy]phenyl}-6-(4-fluorophenyl)thieno[2,3-d]pyrimidin-4-yl]oxy}-3-(2-{[2-(2-fluorophenyl)pyrimidin-4-yl]methoxy}phenyl)propanoate] | 1.72e-07
Cc1c(-c2c(-c3ccc(F)cc3)sc3ncnc(OC(Cc4ccccc4OCc4ccnn4C(C)(C)C)C(=O)OCC(=O)N(C)C)c23)ccc(OCCN(C)C)c1Cl [Example 817, 2-(dimethylamino)-2-oxoethyl (2R)-3-{2-[(1-tert-butyl-1H-pyrazol-5-yl)methoxy]phenyl}-2-{[(5Sa)-5-{3-chloro-4-[2-(dimethylamino)ethoxy]-2-methylphenyl}-6-(4-fluorophenyl)thieno[2,3-d]pyrimidin-4-yl]oxy}propanoate] | 4.75e-07
Cc1c(-c2c(-c3ccc(F)cc3)sc3ncnc(OC(Cc4ccccc4OCc4ccnc(-c5ccccc5F)n4)C(=O)OCC(=O)N(C)C)c23)ccc(OCCN(C)C)c1Cl [Example 818, 2-(dimethylamino)-2-oxoethyl (2R)-2-{[(5Sa)-5-{3-chloro-4-[2-(dimethylamino)ethoxy]-2-methylphenyl}-6-(4-fluorophenyl)thieno[2,3-d]pyrimidin-4-yl]oxy}-3-(2-{[2-(2-fluorophenyl)pyrimidin-4-yl]methoxy}phenyl)propanoate] | 1.12e-06
COCCOc1ccccc1-c1nccc(COc2ccccc2CC(Oc2ncnc3sc(-c4ccc(F)cc4)c(-c4ccc(OCCN(C)C)c(Cl)c4C)c23)C(=O)OCC(=O)N(C)C)n1 [Example 819, 2-(dimethylamino)-2-oxoethyl (2R)-2-{[(5Sa)-5-{3-chloro-4-[2-(dimethylamino)ethoxy]-2-methylphenyl}-6-(4-fluorophenyl)thieno[2,3-d]pyrimidin-4-yl]oxy}-3-[2-({2-[2-(2-methoxyethoxy)phenyl]pyrimidin-4-yl}methoxy)phenyl]propanoate] | 1.57e-07
Cc1oc(=O)oc1COC(=O)C(Cc1ccccc1OCc1ccnn1C(C)(C)C)Oc1ncnc2sc(-c3ccc(F)cc3)c(-c3ccc(OCCN(C)C)c(Cl)c3C)c12 [Example 820, (5-methyl-2-oxo-1,3-dioxol-4-yl)methyl (2R)-3-{2-[(1-tert-butyl-1H-pyrazol-5-yl)methoxy]phenyl}-2-{[(5Sa)-5-{3-chloro-4-[2-(dimethylamino)ethoxy]-2-methylphenyl}-6-(4-fluorophenyl)thieno[2,3-d]pyrimidin-4-yl]oxy}propanoate] | 1.29e-08
Cc1c(-c2c(-c3ccc(F)cc3)sc3ncnc(OC(Cc4ccccc4OCc4ccnn4C(C)(C)C)C(=O)OCOC(=O)C(C)(C)C)c23)ccc(OCCN(C)C)c1Cl [Example 821, {[(2R)-3-{2-[(1-tert-butyl-1H-pyrazol-5-yl)methoxy]phenyl}-2-{[(5Sa)-5-{3-chloro-4-[2-(dimethylamino)ethoxy]-2-methylphenyl}-6-(4-fluorophenyl)thieno[2,3-d]pyrimidin-4-yl]oxy}propanoyl]oxy}methyl 2,2-dimethylpropanoate] | 3.61e-07
CCN(C)CCOc1ccc(-c2c(-c3ccc(F)cc3)sc3ncnc(OC(Cc4ccccc4OCc4ccnc(-c5ccccc5F)n4)C(=O)OCC(=O)N(C)C)c23)c(C)c1Cl [Example 822, 2-(dimethylamino)-2-oxoethyl (2R)-2-{[(5Sa)-5-(3-chloro-4-{2-[ethyl(methyl)amino]ethoxy}-2-methylphenyl)-6-(4-fluorophenyl)thieno[2,3-d]pyrimidin-4-yl]oxy}-3-(2-{[2-(2-fluorophenyl)pyrimidin-4-yl]methoxy}phenyl)propanoate] | 2.4e-06
CCN(C)CCOc1ccc(-c2c(-c3ccc(F)cc3)sc3ncnc(OC(Cc4ccccc4OCc4ccnc(-c5ccccc5F)n4)C(=O)OCc4oc(=O)oc4C)c23)c(C)c1Cl [Example 823, (5-methyl-2-oxo-1,3-dioxol-4-yl)methyl (2R)-2-{[(5Sa)-5-(3-chloro-4-{2-[ethyl(methyl)amino]ethoxy}-2-methylphenyl)-6-(4-fluorophenyl)thieno[2,3-d]pyrimidin-4-yl]oxy}-3-(2-{[2-(2-fluorophenyl)pyrimidin-4-yl]methoxy}phenyl)propanoate] | 1.98e-08
Cc1oc(=O)oc1COC(=O)C(Cc1ccccc1OCc1ccnn1C(C)(C)C)Oc1ncnc2sc(-c3cccc(F)c3F)c(-c3ccc(OCCN(C)C)c(Cl)c3C)c12 [Example 824, (5-methyl-2-oxo-1,3-dioxol-4-yl)methyl (2R)-3-{2-[(1-tert-butyl-1H-pyrazol-5-yl)methoxy]phenyl}-2-{[(5Sa)-5-{3-chloro-4-[2-(dimethylamino)ethoxy]-2-methylphenyl}-6-(2,3-difluorophenyl)thieno[2,3-d]pyrimidin-4-yl]oxy}propanoate] | 3.82e-08
Cc1c(-c2c(-c3cccc(F)c3F)sc3ncnc(OC(Cc4ccccc4OCc4ccnn4C(C)(C)C)C(=O)OCC(=O)N(C)C)c23)ccc(OCCN(C)C)c1Cl [Example 825, 2-(dimethylamino)-2-oxoethyl (2R)-3-{2-[(1-tert-butyl-1H-pyrazol-5-yl)methoxy]phenyl}-2-{[(5Sa)-5-{3-chloro-4-[2-(dimethylamino)ethoxy]-2-methylphenyl}-6-(2,3-difluorophenyl)thieno[2,3-d]pyrimidin-4-yl]oxy}propanoate] | 5.82e-07
COc1ccccc1-c1nccc(COc2ccccc2CC(Oc2ncnc3sc(-c4ccc(F)cc4)c(-c4ccc(OCCN5CC6(CN(C)C6)C5)c(Cl)c4C)c23)C(=O)O)n1 [Example 833, (2R)-2-{[(5Sa)-5-{3-chloro-2-methyl-4-[2-(6-methyl-2,6-diazaspiro[3.3]hept-2-yl)ethoxy]phenyl}-6-(4-fluorophenyl)thieno[2,3-d]pyrimidin-4-yl]oxy}-3-(2-{[2-(2-methoxyphenyl)pyrimidin-4-yl]methoxy}phenyl)propanoic acid] | 3.35e-09
[2H]C([2H])([2H])Oc1ccccc1-c1nccc(COc2ccccc2CC(Oc2ncnc3sc(-c4ccc(F)cc4)c(-c4ccc(OCCN5CCN(C)CC5)c(Cl)c4C)c23)C(=O)OCC)n1 [Example 839, ethyl (2R)-2-{[(5Sa)-5-{3-chloro-2-methyl-4-[2-(4-methylpiperazin-1-yl)ethoxy]phenyl}-6-(4-fluorophenyl)thieno[2,3-d]pyrimidin-4-yl]oxy}-3-{2-[(2-{2-[(^2H3)methyloxy]phenyl}pyrimidin-4-yl)methoxy]phenyl}propanoate] | 6.91e-07
COc1ccccc1CC(Oc1ncnc2sc(-c3ccc(F)cc3)c(-c3ccc(OC)c(Cl)c3C)c12)C(=O)O [Example 840, (2R)-2-{[(5Sa)-5-(3-chloro-4-methoxy-2-methylphenyl)-6-(4-fluorophenyl)thieno[2,3-d]pyrimidin-4-yl]oxy}-3-(2-methoxyphenyl)propanoic acid] | 1.28e-07
COc1ccccc1-c1nccc(COc2ccccc2CC(Oc2ncnc3sc(-c4ccc(F)cc4)c(-c4ccc(OC)c(Cl)c4C)c23)C(=O)O)n1 [Example 841, (2R)-2-{[(5Sa)-5-(3-chloro-4-methoxy-2-methylphenyl)-6-(4-fluorophenyl)thieno[2,3-d]pyrimidin-4-yl]oxy}-3-(2-{[2-(2-methoxyphenyl)pyrimidin-4-yl]methoxy}phenyl)propanoic acid] | 4.8e-09

Same assay, conditions: test compound at 10 uM; Method 1, or Method 2 where the value is underlined (underlining not visible)

SMILES | percentage fluorescence polarisation inhibition (Mcl-1 FP), partial inhibitors [% @ 10 uM]
CCOC(=O)[C@@H](Cc1ccccc1OCc1ccnc(-c2ccccc2F)n1)Oc1ncnc2sc(-c3ccc(F)cc3)c(-c3ccc(OCCN(C)C)c(Cl)c3C)c12 [Example 807, ethyl (2R)-2-{[(5Sa)-5-{3-chloro-4-[2-(dimethylamino)ethoxy]-2-methylphenyl}-6-(4-fluorophenyl)thieno[2,3-d]pyrimidin-4-yl]oxy}-3-(2-{[2-(2-fluorophenyl)pyrimidin-4-yl]methoxy}phenyl)propanoate] | 52.45
CCCCCCCCOC(=O)[C@@H](Cc1ccccc1OCc1ccnc(-c2ccccc2OC)n1)Oc1ncnc2sc(-c3ccc(F)cc3)c(-c3ccc(OCCN4CCN(C)CC4)c(Cl)c3C)c12 [Example 815, octyl (2R)-2-{[(5Sa)-5-{3-chloro-2-methyl-4-[2-(4-methylpiperazin-1-yl)ethoxy]phenyl}-6-(4-fluorophenyl)thieno[2,3-d]pyrimidin-4-yl]oxy}-3-(2-{[2-(2-methoxyphenyl)pyrimidin-4-yl]methoxy}phenyl)propanoate] | 19.95
CCOC(=O)[C@@H](Cc1ccccc1OCc1ccnc(-c2ccccc2OC)n1)Oc1ncnc2sc(-c3ccc(F)cc3)c(-c3ccc(OCCN4CCN(C)CC4)c(Cl)c3C)c12 [Example 830, ethyl (2R)-2-{[(5Ra)-5-{3-chloro-2-methyl-4-[2-(4-methylpiperazin-1-yl)ethoxy]phenyl}-6-(4-fluorophenyl)thieno[2,3-d]pyrimidin-4-yl]oxy}-3-(2-{[2-(2-methoxyphenyl)pyrimidin-4-yl]methoxy}phenyl)propanoate] | −11.9
CCOC(=O)[C@@H](Cc1ccccc1OC)Oc1ncnc2sc(-c3ccc(F)cc3)c(-c3ccc(OC)c(Cl)c3C)c12 [Example 842, ethyl (2R)-2-{[(5Sa)-5-(3-chloro-4-methoxy-2-methylphenyl)-6-(4-fluorophenyl)thieno[2,3-d]pyrimidin-4-yl]oxy}-3-(2-methoxyphenyl)propanoate] | 7.65
CCOC(=O)[C@@H](Cc1ccccc1OCc1ccnc(-c2ccccc2OC)n1)Oc1ncnc2sc(-c3ccc(F)cc3)c(-c3ccc(OC)c(Cl)c3C)c12 [Example 843, ethyl (2R)-2-{[(5Sa)-5-(3-chloro-4-methoxy-2-methylphenyl)-6-(4-fluorophenyl)thieno[2,3-d]pyrimidin-4-yl]oxy}-3-(2-{[2-(2-methoxyphenyl)pyrimidin-4-yl]methoxy}phenyl)propanoate] | 23.05
